# Results taken from patent publication US9248202B2, “Two-photon probe for detecting copper(II) ion and quantitative estimation of copper(II) ion in human tissue using the same” (Korea University Research and Business Foundation, priority 2014, dated 2016).
# How the values were obtained:
# [1] = Two-photon action cross section; type: physicochemical; conditions: EtOH/HEPES (9/1 v/v, pH 7.0)
# Procedure: Referring to FIG. 4(a), the Φδmax value of ACCu2 in EtOH/HEPES (9/1 v/v, pH 7.0) buffer was 32 GM at 880 nm, while those for FL and IR were 32 GM at 880 nm and 46 GM at 750 nm. The lower Φδmax value of ACCu2 at 750 nm than that of IR is because of decreased fluorescence resonance energy transfer (FRET) from IR to FL and it allows to obtain bright TPM images of cells and ^.tissues labeled with ACCu2.
# The two-photon cross section (δ) was determined by the fe tosecond (fs) fluorescence measurement technique described in the literature (S. K. Lee, W. J. Yang, J. J. Choi, C. H. Kim, S.-J. Jeon, B. R. Cho, Org. Lett 2005, 7, 323-326.), ACCu2 was dissolved in 20 mM HEPES buffer (pH 7.0) to a concentration of 3.0×10^−6 M and then two-photon induced fluorescence intensity was measured at 740-940 nm using rhodamine 6G as a reference, whose two-photon property has been well characterized. The intensities of two-photon induced fluorescence of the reference and the sample were determined at the same excitation wavelength.
# The two-photon cross section can be calculated from equation (3). δ=δr(SsΦrΦrcr)/(SrΦsΦscs) Equation (3)
# wherein s and r stand for the sample, i.e., ACCu2, and the reference, respectively. S denotes the intensity of the signal collected using a CCD detector, Φ is the fluorescence quantum yield, Φ is the overall fluorescence collection efficiency of the experimental apparatus, c is the number density of molecules in solution, and δr is the two-photon cross section of the reference molecule.
# [2] = Absorption and fluorescence spectra, quantum yield, energy transfer; type: physicochemical; conditions: for φ (fluorescence quantum yield): uncertainty ± 15%; for λmax^abs: one-photon absorption; for λmax^t1: one-photon emission
# Procedure: Absorption spectra were recorded using the Hewlett-Packard 8453 diode array spectrophotometer and fluorescence spectra were measured using the Amico-Bowman series 2 luminescence spectrometer a 1 cm standard quartz cell. The fluorescence quantum yield was determined using coumarin 307 and rhodamine B as references according to the literature method (J. N. Demas, G. A. Crosby, J. Phys. Chem. 1971, 75, 991).
# (hereinafter, ‘ACCu2’), a compound of [Chemical Formula 12] (hereinafter, ‘FL’) and a compound of [Chemical Formula 13] (hereinafter, ‘IR’) in 1,4-dioxane, DMF, ethanol, EtOH/HEPES (9:1) and HEPES buffer ([HEPES]=20 mM, pH 7.0). Excitation wavelength was 420 nm. The solubility of ACCu2 in HEPES buffer ([HEPES]=20 mM, pH 7.0) as determined by the fluorescence method described in the literature (Kim, H. M.; Choo, H. J.; Jung, S. Y.; Ko, Y. G.; Park, W. H.; Jeon, S. J.; Kim, C. H.; Joo, T. H.; Cho, B. R. Chem Bio Chem 2007, 8, 553) was 8.0 μM, which was sufficient to stain cells.
# To assess the origin of the spectral changes, the energy transfer efficiency (ETE) was calculated using Equation (1). The ETE was 93.4%.
# In Equation (1), AIR and AIR′ are the absorbances of the IR moiety and IR, respectively, and FIR and FIR′ are the emission intensities of the IR moiety and IR, respectively, upon excitation at 373 nm.
# The antenna effect in the one-photon (OP) (or TP) mode was 3.0 (or 3.1). The antenna effect was calculated by dividing the area of emission from the FL moiety upon excitation of the IR moiety at 373 nm (or 750 nm in the TP mode) by that collected from the direct excitation of FL at 461 nm (or 880 nm in the […]).
SMILES,Φδmax (two-photon action cross section) ([1]; at 880 nm) [GM],"φ (fluorescence quantum yield) ([2]; 1,4-Dioxane (0.164))",φ (fluorescence quantum yield) ([2]; DMF (0.386)),φ (fluorescence quantum yield) ([2]; EtOH (0.654)),φ (fluorescence quantum yield) ([2]; EtOH/HEPES (9:1)),"φ (fluorescence quantum yield) ([2]; HEPES buffer 20 mM, pH 7.0)","λmax^abs ([2]; 1,4-Dioxane (0.164)) [nm]",λmax^abs ([2]; DMF (0.386)) [nm],λmax^abs ([2]; EtOH (0.654)) [nm],λmax^abs ([2]; EtOH/HEPES (9:1)) [nm],"λmax^abs ([2]; HEPES buffer 20 mM, pH 7.0) [nm]","λmax^t1 ([2]; 1,4-Dioxane (0.164)) [nm]",λmax^t1 ([2]; DMF (0.386)) [nm],λmax^t1 ([2]; EtOH (0.654)) [nm],λmax^t1 ([2]; EtOH/HEPES (9:1)) [nm],"λmax^t1 ([2]; HEPES buffer 20 mM, pH 7.0) [nm]",Φδmax (two-photon action cross section) ([1]; at 750 nm) [GM]
CN(C)c1ccc2cc3cc(C(=O)NCc4ccc(C(=O)O)cn4)c(=O)oc3cc2c1 [FL],32,0.77,0.29,0.25,0.15,0.0045,438,454,457,461,452,536,576,582,587,590,–
COCCOCCOCCOc1ccc2c(ccc3cc(C(=O)N4CCNCC4)c(=O)oc32)c1 [IR],–,0.080,0.070,0.18,0.62,1.00,367,366,372,373,375,445,448,451,460,468,46
